Settings: Fluid (supercritical or subcritical phases)

O=C=O [carbon dioxide]
mass density [kg/m3]
Settings | 10000 kPa | 12000 kPa | 15000 kPa | 18000 kPa | 21000 kPa
308 K | 714.84 | 768.42 | 816.06 | 848.87 | 874.4
318 K | 502.57 | 659.73 | 743.17 | 790.18 | 823.71
328 K | 326.4 | 506.85 | 654.94 | 724.13 | 768.74

— the NIST ThermoML archive (doi:10.1016/j.tca.2011.01.039)
